Assay results taken from ChEMBL document CHEMBL3872264, “Discovery of biphenyl imidazole derivatives as potent antifungal agents: Design, synthesis, and structure-activity relationship studies” (Bioorg Med Chem, 2017).
≈ marks a conversion by molar mass, not a printed value.

Experiments:
Candida albicans [1] = assay: Anti-fungal activity against Candida albicans CPCC 400523 by broth microdilution method; assay type: functional
Aspergillus fumigatus = assay: Anti-fungal activity against Aspergillus fumigatus CGMCC 3.7795 by broth microdilution method; assay type: functional
Candida tropicalis = assay: Anti-fungal activity against Candida tropicalis CGMCC 2.3739 by broth microdilution method; assay type: functional
Candida albicans [2] = assay: Anti-fungal activity against Candida albicans SC5314 by broth microdilution method; assay type: functional
Cryptococcus neoformans = assay: Anti-fungal activity against Cryptococcus neoformans CGMCC 2.3161 by broth microdilution method; assay type: functional
Candida albicans [3] = assay: Anti-fungal activity against fluconazole-resistant Candida albicans 100 by broth microdilution method; assay type: functional
Candida albicans [4] = assay: Anti-fungal activity against fluconazole-resistant Candida albicans 103 by broth microdilution method; assay type: functional
[5] = molecular target: T1, Lanosterol 14-alpha demethylase (Candida albicans (strain SC5314 / ATCC MYA-2876) (Yeast), UniProt P10613); assay: Inhibition of Candida albicans SC5314 CYP51 assessed as change in total sterol composition at 8 ug/ml by GC-MS method (reference value: 7.1 %); parameters: scale not given: the % may be the effect or the level left; settings: at 8 µg/mL
T1 sequence (P10613 whole entry): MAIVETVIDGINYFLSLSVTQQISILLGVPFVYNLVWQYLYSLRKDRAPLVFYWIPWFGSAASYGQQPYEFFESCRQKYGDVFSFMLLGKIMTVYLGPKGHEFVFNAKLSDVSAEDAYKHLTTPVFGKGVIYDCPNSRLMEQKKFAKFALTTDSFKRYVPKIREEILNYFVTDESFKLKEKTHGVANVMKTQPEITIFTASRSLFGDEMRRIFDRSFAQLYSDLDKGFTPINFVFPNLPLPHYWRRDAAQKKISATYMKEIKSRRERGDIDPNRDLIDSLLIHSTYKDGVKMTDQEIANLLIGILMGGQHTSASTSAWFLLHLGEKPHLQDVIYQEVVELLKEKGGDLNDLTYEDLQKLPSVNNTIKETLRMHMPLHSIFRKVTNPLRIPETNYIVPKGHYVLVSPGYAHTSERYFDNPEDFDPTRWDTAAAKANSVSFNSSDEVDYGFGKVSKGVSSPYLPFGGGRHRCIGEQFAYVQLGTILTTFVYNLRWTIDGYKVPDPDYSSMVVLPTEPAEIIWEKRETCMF

[6] = molecular target: T1, Lanosterol 14-alpha demethylase; assay: Inhibition of Candida albicans SC5314 CYP51 assessed as lanosterol composition of total sterols at 8 ug/ml by GC-MS method (reference value: 3.5 %); parameters: scale not given: the % may be the effect or the level left; settings: at 8 µg/mL
[7] = molecular target: T1, Lanosterol 14-alpha demethylase; assay: Inhibition of Candida albicans SC5314 CYP51 assessed as ergosterol composition of total sterols at 8 ug/ml by GC-MS method (reference value: 89.4 %); parameters: scale not given: the % may be the effect or the level left; settings: at 8 µg/mL
[8] = molecular target: T1, Lanosterol 14-alpha demethylase; assay: Inhibition of Candida albicans SC5314 CYP51 assessed as obtusifoliol composition of total sterols at 8 ug/ml by GC-MS method relative to control; parameters: scale not given: the % may be the effect or the level left; settings: at 8 µg/mL
[9] = molecular target: T1, Lanosterol 14-alpha demethylase; assay: Inhibition of Candida albicans SC5314 CYP51 assessed as eburicol composition of total sterols at 8 ug/ml by GC-MS method relative to control; parameters: scale not given: the % may be the effect or the level left; settings: at 8 µg/mL

Row | SMILES | MIC (Candida albicans [1]) | MIC (Aspergillus fumigatus) | MIC (Candida tropicalis) | MIC (Candida albicans [2]) | MIC (Cryptococcus neoformans) | MIC (Candida albicans [3]) | MIC (Candida albicans [4]) | Activity [5] | Activity [6] | Activity [7] | Activity [8] | Activity [9]
1 | CC(C)NC(=O)[C@H](Cn1ccnc1)NC(=O)c1ccc(-c2ccccc2)cc1 | > 16 µg/mL | > 16 µg/mL | > 16 µg/mL | > 16 µg/mL | > 16 µg/mL |  |  |  |  |  |  | 
2 | CC(C)CNC(=O)[C@H](Cn1ccnc1)NC(=O)c1ccc(-c2ccccc2)cc1 | > 16 µg/mL | > 16 µg/mL | > 16 µg/mL | > 16 µg/mL | > 16 µg/mL |  |  |  |  |  |  | 
3 | CC(C)OC(=O)[C@H](Cn1ccnc1)NC(=O)c1ccc(-c2ccccc2F)cc1 | 0.25 µg/mL (≈ 0.632 µM) | > 16 µg/mL | 0.0625 µg/mL (≈ 0.158 µM) | 0.0625 µg/mL (≈ 0.158 µM) | 1 µg/mL (≈ 2.53 µM) | 8 µg/mL (≈ 20.2 µM) | 4 µg/mL (≈ 10.1 µM) |  |  |  |  | 
4 | Cc1ccccc1-c1ccc(C(=O)N[C@@H](Cn2ccnc2)C(=O)OCC(C)C)cc1 | > 16 µg/mL | > 16 µg/mL | 4 µg/mL (≈ 9.86 µM) | > 16 µg/mL | > 16 µg/mL |  |  |  |  |  |  | 
5 | CC(C)OC(=O)[C@H](Cn1ccnc1)NC(=O)c1ccc(-c2ccc(F)cc2F)cc1 | 2 µg/mL (≈ 4.84 µM) | > 16 µg/mL | 0.5 µg/mL (≈ 1.21 µM) | 1 µg/mL (≈ 2.42 µM) | 8 µg/mL (≈ 19.4 µM) |  |  |  |  |  |  | 
6 | CC(C)OC(=O)[C@H](Cn1ccnc1)NC(=O)c1ccc(-c2cc(F)ccc2F)cc1 | 1 µg/mL (≈ 2.42 µM) | > 16 µg/mL | 0.0625 µg/mL (≈ 0.151 µM) | 0.25 µg/mL (≈ 0.605 µM) | 16 µg/mL (≈ 38.7 µM) |  |  |  |  |  |  | 
7 | Cc1ccc(-c2ccc(C(=O)N[C@@H](Cn3ccnc3)C(=O)OC(C)C)cc2)cc1 | 0.5 µg/mL (≈ 1.28 µM) | > 16 µg/mL | 0.0625 µg/mL (≈ 0.16 µM) | 0.0625 µg/mL (≈ 0.16 µM) | 4 µg/mL (≈ 10.2 µM) |  |  |  |  |  |  | 
8 | CC(C)OC(=O)[C@H](Cn1cncn1)NC(=O)c1ccc(-c2ccccc2)cc1 | 4 µg/mL (≈ 10.6 µM) | > 16 µg/mL | 2 µg/mL (≈ 5.28 µM) | 0.25 µg/mL (≈ 0.661 µM) | 16 µg/mL (≈ 42.3 µM) |  |  |  |  |  |  | 
9 | CC(C)OC(=O)[C@H](Cn1ccnc1)NC(=O)c1ccc(-c2ccc(OC(F)(F)F)cc2)cc1 | 0.125 µg/mL (≈ 0.271 µM) | > 16 µg/mL | 0.5 µg/mL (≈ 1.08 µM) | 0.125 µg/mL (≈ 0.271 µM) | 16 µg/mL (≈ 34.7 µM) |  |  |  |  |  |  | 
10 | CC(C)OC(=O)[C@H](Cn1ccnc1)NC(=O)c1ccc(-c2ccccc2)cc1 | 0.25 µg/mL (≈ 0.662 µM) | > 16 µg/mL | 0.0625 µg/mL (≈ 0.166 µM) | 0.0312 µg/mL (≈ 0.0828 µM) | 2 µg/mL (≈ 5.3 µM) |  |  |  |  |  |  | 
11 | CC(C)OC(=O)[C@H](Cn1ccnc1)NC(=O)c1ccc(-c2ccc(F)cc2)cc1 | 8 µg/mL (≈ 20.2 µM) | > 16 µg/mL | 0.5 µg/mL (≈ 1.26 µM) | 1 µg/mL (≈ 2.53 µM) | > 16 µg/mL |  |  |  |  |  |  | 
12 | CC(C)COC(=O)[C@H](Cn1ccnc1)NC(=O)c1ccc(-c2ccccc2F)cc1 | 0.125 µg/mL (≈ 0.305 µM) | > 16 µg/mL | 0.0312 µg/mL (≈ 0.0763 µM) | 0.0312 µg/mL (≈ 0.0763 µM) | 0.5 µg/mL (≈ 1.22 µM) | 2 µg/mL (≈ 4.88 µM) | 4 µg/mL (≈ 9.77 µM) | 6.2% | 19.6% | 2.5% | 6.6% | 65.1%
13 | OC(Cn1cncn1)(Cn1cncn1)c1ccc(F)cc1F [FLUCONAZOLE] | 1 µg/mL (≈ 3.27 µM) | > 16 µg/mL | 1 µg/mL (≈ 3.27 µM) | 0.5 µg/mL (≈ 1.63 µM) | 4 µg/mL (≈ 13.1 µM) | > 64 µg/mL | > 64 µg/mL | 4.9% | 18.2% | 2% | 6.8% | 68.1%
14 | CCC(C)n1ncn(-c2ccc(N3CCN(c4ccc(OCC5COC(Cn6cncn6)(c6ccc(Cl)cc6Cl)O5)cc4)CC3)cc2)c1=O (stereo unspecified) [ITRACONAZOLE] | 0.25 µg/mL (≈ 0.354 µM) | 4 µg/mL (≈ 5.67 µM) | 0.5 µg/mL (≈ 0.709 µM) | 0.0625 µg/mL (≈ 0.0886 µM) | 1 µg/mL (≈ 1.42 µM) |  |  |  |  |  |  | 
